Results reported in PMC4589238, “Acute Biphasic Effects of Ayahuasca” (PLoS ONE, 2015).
Read-outs that look alike come from different tables or passages of the source.

Columns and labels:
[1] = Plasma concentrations of ayahuasca compounds and metabolites after oral ayahuasca (LC/MS/MS); type: in vivo, human; design: AUC (mean ± sd): unit not given here; details: for Detection in plasma samples: any plasma sample after oral ayahuasca; for Cmax / Tmax: both sexes, human, in vivo; for Cmax: po
Source text: A sample of six liters of "Hoasca" was donated by the União do Vegetal (UDV) church in Brazil for the specific purpose of use in this study. Quantification of the main compounds in the brew was done with liquid chromatography-electrospray ionization-tandem mass spectrometry (LC/MS/MS). The screening included the following compounds: DMT, DMT‐N‐oxide (DMT-NO), N‐methyltryptamine (NMT), indoleacetic acid (IAA), 5‐hydroxy‐DMT (5-OH-DMT, or bufotenin), 5‐methoxy‐DMT (5-MeO-DMT), Harmine, Harmol, Harmaline, Harmalol, THH, 7‐hydroxy‐tetrahydroharmine (THH-OH), and 2‐methyl‐tetrahydro‐beta‐carboline (2-MTHBC). The original liquid volume was then reduced to 50% using a rotary evaporator to decrease the amount of liquid intake.
Blood was collected in sterile EDTA containing tubes. Ten blood samples (3 mL each) were collected every 25 minutes, starting 25 minutes before ayahuasca ingestion and ending 200 minutes after ingestion (in a total of ten samples for each individual). Blood was collected by a professional nurse, with a catheter that remained in place during the entire time of the study. Each tube was carefully and slowly turned upside-down three times and then stored at 0°C until all ten samples were collected. Blood samples were then centrifuged at 2000 rpm for 10 min at 4°C and the resulting plasma immediately collected and frozen at -80°C. The frozen plasma samples were stored at -80°C until shipped on dry ice to USA for analysis according to [31]. Compounds included in this screening were DMT, DMT-NO, NMT, IAA, 5-OH-DMT (bufotenin), 5-MeO-DMT, Harmine, Harmol, Harmaline, Harmalol, THH, THH-OH and 2-MTHBC.
Two volunteers opted out of blood collection, and data from one volunteer was discarded due to high hemolysis in the blood samples. Therefore data were available from 16 volunteers. Maximum plasma Concentration (Cmax), Time for maximum plasma concentration (Tmax) and area under the curve (AUC) of ten identified compounds are summarized in Table 2. […] No significant differences were found between men and women for any of the identified compounds in blood. […] There were no significant correlations between time to vomit and Cmax or AUC.

[2] = test system: healthy volunteers; experiment: Association between plasma concentration and EEG spectral changes (generalized linear models); type: in vivo, human; details: for Clusters between plasma concentration and EEG spectra: delta, theta and beta frequency bands; for Cohen's d, plasma concentration vs alpha band: left frontal electrodes
Protocol: Relationships between plasma concentration of identified compounds and spectral changes in the six frequency bands evaluated were calculated by fitting generalized linear models (glmfit function in MATLAB) for each compound and frequency band. This analysis was followed by the non-parametric cluster based correction with 5000 permutations.
Results were considered statistically significant when p <0.05. Effect sizes are also reported, using Partial eta squared (partial η^2) for the main frequency clusters and Cohen’s d for the generalized linear models.

[3] = test system: MAO-A; design: method as in PMID 19879939; details: cited from earlier work
[4] = test system: human subjects; details: cited from earlier work
[5] = test system: 5HT-2A receptors; details: cited from earlier work
[6] = cited from earlier work
[7] = plasma, 16 volunteers, oral ayahuasca
[8] = plasma, 16 volunteers, oral ayahuasca, sampling to 200 min
[9] = one right central electrode (C6)
[10] = plasma, 16 volunteers, oral ayahuasca, sampling to 200 min, read-out: Cmax (mean ± sd)
[11] = plasma, 16 volunteers, oral ayahuasca, read-out: Cmax (min—max)
[12] = plasma, 16 volunteers, oral ayahuasca, read-out: Tmax (mean ± sd) (converted)
[13] = left centro-parieto-occipital electrodes
[14] = left fronto-central electrodes (F7 and FC5)
[15] = left parieto-occipital electrodes
[16] = one large widespread bilateral cluster
[17] = from ayahuasca ingestion, group average curve, read-out: Time of peak plasma level in the group average (converted)
[18] = bilateral parieto-occipital electrodes
[19] = left fronto-temporal electrodes

CC1NCCc2c1[nH]c1cc(O)ccc21 (centres unmarked) [THH-OH, 7‐hydroxy‐tetrahydroharmine]
AUC (min—max) [1, 7]: 0.00 to 284.32 g·min/mL | Cmax (min—max) [1, 7]: 0.00 to 111.01 ng/mL | Tmax (mean ± sd) [1, 7]: 1.994 ± 0.8978 h | Cmax (mean ± sd) [1, 8]: 22.58 ± 26.76 ng/mL | Clusters between plasma concentration and alpha band [2]: No significant clusters | Cohen's d, plasma concentration vs delta band power increase ([2]; one left frontal electrode (F7)): 0.2644 | Cohen's d, plasma concentration vs delta band power increase [2, 9]: 0.0269 | Cohen's d, plasma concentration vs theta band power increase [2, 9]: 0.2630 | Clusters between plasma concentration and slow-gamma frequency band ([2]; slow-gamma band): No significant clusters

CN(C)CCc1c[nH]c2ccc(O)cc12 [5-OH-DMT, 5‐hydroxy‐DMT]
Detection in plasma samples [1]: never detected

Cc1[nH]ccc2c1[nH]c1cc(=O)ccc12 [Harmol]
Cmax [1, 10]: 85 ± 93.6 ng/mL | Cmax [1, 11]: < 319 ng/mL | Tmax [1, 12]: 2.47 h | AUC (min—max) [1, 7]: 0.00 to 1550.35 g·min/mL | Clusters between plasma concentration and EEG spectra [2]: did not show any significant clusters | Cohen's d, plasma concentration vs alpha band power decrease [2, 13]: 0.0556 | Cohen's d, plasma concentration vs alpha band [2]: 0.3029 | Cohen's d, plasma concentration vs slow-gamma power increase [2, 14]: 0.1250 | Cohen's d, plasma concentration vs slow-gamma power increase [2, 15]: 0.2921 | Cohen's d, plasma concentration vs fast-gamma power increase [2, 16]: 0.0463 | Cohen's d, plasma concentration vs slow-gamma power increase ([2]; right frontal electrodes): 0.2747 | Cohen's d, plasma concentration vs slow-gamma power increase ([2]; right parietal electrodes): 0.0941

COc1ccc2[nH]cc(CCN(C)C)c2c1 [5-MeO-DMT, 5‐methoxy‐DMT]
Detection in plasma samples [1]: never detected

COc1ccc2c(c1)[nH]c1c(C)nccc12 [Harmine]
Cmax [1, 10]: 110 ± 138 ng/mL | Tmax [1, 17]: 0.833 h | Tmax [1, 12]: 2.5 h | AUC (min—max) [1, 7]: 21.37 to 2325.28 g·min/mL | Clusters between plasma concentration and EEG spectra [2]: did not show any significant clusters | Cohen's d, plasma concentration vs slow-gamma power increase ([2]; left centro-frontal electrodes (F7, FC5, C5 and C3)): 0.2028 | Cohen's d, plasma concentration vs alpha band power decrease [2, 13]: 0.0297 | Cohen's d, plasma concentration vs slow-gamma power increase [2, 15]: 0.1797 | Cohen's d, plasma concentration vs fast-gamma power increase [2, 16]: 0.0312 | Cohen's d, plasma concentration vs slow-gamma power increase ([2]; right frontal electrodes): 0.0024 | Cohen's d, plasma concentration vs slow-gamma power increase ([2]; right parietal electrodes): 0.1208 | Potency at inhibiting MAO-A relative to MAO-B [3]: 10,000 fold | Effects in humans ([4]; 120 mg orally): barely-perceptible sedative effects | Effects in humans ([4]; 10 to 20 mg/kg i.m.): effects qualitatively similar to LSD or mescaline | Psychoactive dose ([4]; i.v.): ≥ 200 mg | Affinity for 5HT-2A receptors [5]: moderate affinity

C[N+](C)([O-])CCc1c[nH]c2ccccc12 [DMT-NO, DMT‐N‐oxide]
AUC (mean ± sd) [1, 7]: 60.37 ± 57.60 | AUC (min—max) [1, 7]: 5.21 to 191.29 g·min/mL | Cmax (min—max) [1, 7]: 1.58 to 40.60 ng/mL | Tmax (mean ± sd) [1, 7]: 1.849 ± 0.6267 h | Cmax (mean ± sd) [1, 8]: 14.42 ± 12.50 ng/mL | Clusters between plasma concentration and beta band [2]: No significant clusters | Cohen's d, plasma concentration vs fast-gamma power increase [2, 18]: 0.0003 | Clusters between plasma concentration and delta band [2]: not significant | Cohen's d, plasma concentration vs fast-gamma power increase ([2]; left centro-frontal electrodes): 0.1917 | Cohen's d, plasma concentration vs slow-gamma power increase ([2]; left centro-parieto-occipital extending to right parietal electrodes): 0.0593 | Cohen's d, plasma concentration vs alpha band power decrease ([2]; left centro-parieto-occipital extending to some left frontal electrodes): 0.0610 | Cohen's d, plasma concentration vs slow-gamma power increase ([2]; right centro-temporal electrodes (C6, T8 and TP8)): 0.0052 | Cohen's d, plasma concentration vs fast-gamma power increase ([2]; right centro-temporo-frontal electrodes): 0.0269 | Cohen's d, plasma concentration vs slow-gamma power increase ([2]; right frontal electrodes): 0.0061 | Cohen's d, plasma concentration vs alpha band power decrease ([2]; right fronto-temporal electrodes (FC6, FT8 and FT10)): 0.1341

CN(C)CCc1c[nH]c2ccccc12 [DMT, N,N-dimethyltryptamine]
Cmax [1, 10]: 25.4 ± 16.8 ng/mL | Cmax [1, 11]: 2.49 to 65.9 ng/mL | Tmax [1, 17]: 1.25 h | Tmax [1, 12]: 2.21 h | AUC (min—max) [1, 7]: 9.52 to 219.10 g·min/mL | Cohen's d, plasma concentration vs fast-gamma power increase ([2]; bilateral temporo-parieto-occipital electrodes): 0.0309 | Cohen's d, plasma concentration vs alpha band power decrease [2, 13]: 0.0822 | Cohen's d, plasma concentration vs slow-gamma power increase [2, 13]: 0.0125 | Cohen's d, plasma concentration vs beta power increase [2, 14]: 0.1131 | Cohen's d, plasma concentration vs fast-gamma power increase [2, 19]: 0.0193 | Cohen's d, plasma concentration vs slow-gamma power increase [2, 19]: 0.0966 | Cohen's d, plasma concentration vs delta band increase ([2]; left fronto-temporal electrodes (FT9, F7 and FT7)): 0.2962 | Cohen's d, plasma concentration vs fast-gamma power increase ([2]; right frontal electrodes): 0.1366 | Cohen's d, plasma concentration vs slow-gamma power increase ([2]; right frontal electrodes): 0.0161 | Cohen's d, plasma concentration vs delta band increase ([2]; right frontal electrodes (AF4 and F2)): 0.2100

O=C(O)Cc1c[nH]c2ccccc12 [IAA, indoleacetic acid]
AUC (min—max) [1, 7]: 1237.81 to 7726.25 g·min/mL | Cmax (min—max) [1, 7]: 61.35 to 1674.57 ng/mL | Tmax (mean ± sd) [1, 7]: 2.9167 ± 0.6632 h | Cmax (mean ± sd) [1, 8]: 717.72 ± 454.50 ng/mL | Clusters between plasma concentration and beta band [2]: No significant clusters | Clusters between plasma concentration and delta band [2]: not significant | Cohen's d, plasma concentration vs alpha band [2]: 0.2888 | Cohen's d, plasma concentration vs slow-gamma ([2]; right centro-frontal electrodes (F2, FCz, FC2, FC4)): 0.0052 | Cohen's d, plasma concentration vs fast-gamma power increase ([2]; right frontal electrodes): 0.0737 | Cohen's d, plasma concentration vs fast-gamma ([2]; right parietal electrodes (CP2, Pz, P2, P4)): 0.1428

CNCCc1c[nH]c2ccccc12 [NMT, N‐methyltryptamine]
Cmax [1, 10]: 3.1 ± 2.12 ng/mL | Cmax [1, 11]: 0.57 to 7.56 ng/mL | Tmax [1, 12]: 2.03 h | AUC (min—max) [1, 7]: 1.52 to 21.69 g·min/mL | Clusters between plasma concentration and alpha band [2]: No significant clusters | Cohen's d, plasma concentration vs slow-gamma power increase ([2]; bilateral frontal electrodes): 0.0822 | Cohen's d, plasma concentration vs fast-gamma power increase ([2]; bilateral fronto-central electrodes): 0.0290 | Cohen's d, plasma concentration vs fast-gamma power increase [2, 18]: 0.0911 | Clusters between plasma concentration and delta band [2]: not significant | Cohen's d, plasma concentration vs beta power increase ([2]; left frontal electrodes (F7, AF7, AF3, AFz)): 0.0863 | Cohen's d, plasma concentration vs slow-gamma power increase ([2]; occipital electrodes (O1, Oz and O2)): 0.2579 | Cohen's d, plasma concentration vs slow-gamma power increase ([2]; right parietal electrodes): 0.1538

CC1=NCCc2c1[nH]c1cc(O)ccc21 [Harmalol]
Cmax [1, 10]: 17.2 ± 13.6 ng/mL | Cmax [1, 11]: 3.11 to 48.5 ng/mL | Tmax [1, 12]: 2.08 h | AUC (min—max) [1, 7]: 9.91 to 204.99 g·min/mL | Clusters between plasma concentration and EEG spectra [2]: did not show any significant clusters | Cohen's d, plasma concentration vs alpha band power decrease ([2]; left centro-parietal electrodes): 0.0673 | Cohen's d, plasma concentration vs slow-gamma power increase [2, 14]: 0.0707 | Cohen's d, plasma concentration vs fast-gamma power increase [2, 19]: 0.1479 | Cohen's d, plasma concentration vs alpha band power decrease [2, 15]: 0.1056 | Cohen's d, plasma concentration vs slow-gamma power increase [2, 15]: 0.0542 | Cohen's d, plasma concentration vs fast-gamma power increase ([2]; right frontal electrodes): 0.0785 | Cohen's d, plasma concentration vs slow-gamma power increase ([2]; right frontal electrodes): 0.001

CN1CCc2c([nH]c3ccccc23)C1 [2-MTHBC, 2‐methyl‐tetrahydro‐beta‐carboline]
Detection in plasma samples [1]: never detected

COc1ccc2c3c([nH]c2c1)[C@@H](C)NCC3 [THH, tetrahydroharmine]
Time to reach plateau of plasma level in the group average ([1]; from ayahuasca ingestion, group average curve): 150 min | AUC (mean ± sd) [1, 7]: 1262.09 ± 1270.39 | AUC (min—max) [1, 7]: 75.01 to 3762.73 g·min/mL | Cmax (min—max) [1, 7]: 22.62 to 895.70 ng/mL | Tmax (mean ± sd) [1, 7]: 3.1772 ± 0.7117 h | Cmax (mean ± sd) [1, 8]: 328.76 ± 324.86 ng/mL | Cohen's d, plasma concentration vs slow-gamma power increase ([2]; bilateral parieto-occipital cluster): 0.0656 | Clusters between plasma concentration and EEG spectra [2]: did not show any significant clusters | Cohen's d, plasma concentration vs alpha band power decrease ([2]; left fronto-centro-parieto-occipital cluster extending to some right centro-parietal electrodes): 0.0044 | Cohen's d, plasma concentration vs slow-gamma power increase ([2]; left fronto-temporo-central electrodes): 0.0795 | Cohen's d, plasma concentration vs fast-gamma power increase [2, 16]: 0.0501 | Cohen's d, plasma concentration vs slow-gamma power increase ([2]; right frontal electrodes): 0.0366 | Recovery in 24 h urine as THH and THH-OH ([6]; after ingestion of ayahuasca): 9% | Half-life [6]: ~9 h | Affinity for 5HT-2A receptors [5]: moderate affinity
